Laboratory results published in patent US20210139484A1, “DIHYDROISOQUINOLINE-2(1H)-CARBOXAMIDE AND RELATED COMPOUNDS AND THEIR USE IN TREATING MEDICAL CONDITIONS” (GOSSAMER BIO SERVICES, INC., priority 2018, published 2021).

Target: T1, human HPK1 protein (Homo sapiens, UniProt Q92918)
T1 construct: recombinant human HPK1 protein (a.a. 1-346) was expressed in Sf9 insect cells; GST (N); purchased Signalchem M23-11G; host or cells: Sf9 insect cells (baculovirus)
T1 sequence (Q92918 1-346): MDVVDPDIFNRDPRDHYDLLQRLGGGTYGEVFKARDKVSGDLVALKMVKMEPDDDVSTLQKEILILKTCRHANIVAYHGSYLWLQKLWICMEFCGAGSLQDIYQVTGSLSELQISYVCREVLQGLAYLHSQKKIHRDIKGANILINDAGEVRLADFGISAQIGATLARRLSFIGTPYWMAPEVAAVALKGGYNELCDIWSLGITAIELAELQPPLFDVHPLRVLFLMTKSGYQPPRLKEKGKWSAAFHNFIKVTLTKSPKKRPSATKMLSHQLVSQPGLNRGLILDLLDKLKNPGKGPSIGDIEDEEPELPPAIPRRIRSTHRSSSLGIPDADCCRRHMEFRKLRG
Test: Human HPK1 protein TR-FRET assay
Format: biochemical
Settings: 1 mM ATP
How it was run: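 GST-tagged HPK1 (a.a. 1-346, Sf9-expressed) at 10 nM phosphorylated 100 nM ULight CREBtide with 1 mM ATP in Tris pH 7.5, MgCl2, NP-40, DTT, 1% DMSO, 60 minutes at room temperature. Phospho-Ser133 detected by Eu-antibody TR-FRET (665/615 nm ratio); IC50 from 4-parameter fit against DMSO control.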

Row | SMILES | IC50 (Table 20) | IC50 (Table 19)
1 | CC[C@@H]1CN(C(=O)Nc2ccc(CN3CCNCC3)c(C(F)(F)F)c2)Cc2cc(Oc3ccnc4[nH]c(CO)cc34)ccc21 [XV-4] | < 500 nM | –
2 | CCN1CCN(Cc2ccc(NC(=O)N3Cc4cc(Oc5ncnc6[nH]c(C)cc56)cnc4[C@@H](C)C3)cc2C(F)(F)F)CC1 [XI-6] | < 500 nM | –
3 | CC[C@@H]1CN(C(=O)Nc2ccc(CN3CCN(CCO)CC3)c(C(F)(F)F)c2)Cc2cc(Oc3ccnc4[nH]c(C5CC5)cc34)ccc21 [XV-26] | < 500 nM | –
4 | CCN1CCN(Cc2ccc(NC(=O)N3CCc4ccc(Oc5ccnc(C(N)=O)c5)cc4[C@@H]3C)cc2C(F)(F)F)CC1 [V-12] | – | 500 to 5000 nM
5 | CCN1CCN(Cc2ccc(NC(=O)N3CCc4ccc(Oc5c(F)cnc6[nH]c(-c7cnn(C)c7)cc56)cc4C3)cc2C(F)(F)F)CC1 [XII-15] | < 500 nM | –
6 | CC[C@@H]1CN(C(=O)Nc2ccc(CN3CCN(CC)CC3)c(C(F)(F)F)c2)Cc2cc(Oc3ccnc4[nH]c(CO)cc34)cnc21 [XIV-28] | < 500 nM | –
7 | CCc1cc2c(Oc3ccc4c(c3)[C@H](C)N(C(=O)Nc3ccc(CN5CCN(CC)CC5)c(C(F)(F)F)c3)CC4)ccnc2[nH]1 [V-22] | – | < 500 nM
8 | CC1CN(C(=O)Nc2cnc(OC3CCN(C)CC3)c(C(F)(F)F)c2)Cc2cc(Oc3ccnc4[nH]ncc34)cnc21 (stereo not drawn) [VII-10] | – | < 500 nM
9 | CCN1CCN(Cc2ccc(NC(=O)N3CCc4ccc(Oc5ccnc6[nH]c(C)cc56)cc4C3)cc2C(F)(F)F)CC1 [III-4] | – | < 500 nM
10 | CCN1CCN(Cc2ccc(NC(=O)N3CCc4ccc(Sc5ncnn6cccc56)cc4C3)cc2C(F)(F)F)CC1 [X-3] | – | 500 to 5000 nM
11 | CC[C@@H]1CN(C(=O)Nc2cnc(CN3CCN(CC)CC3)c(C(F)(F)F)c2)Cc2cc(Oc3ccnc4[nH]ccc34)cnc21 [XIV-9] | < 500 nM | –
12 | CCN1CCN(Cc2ccc(NC(=O)N3CCc4cc(F)c(Oc5ncnn6cccc56)cc4C3C)cc2C(F)(F)F)CC1 (stereo not drawn) [IV-35] | – | < 500 nM
13 | CC[C@@H]1CN(C(=O)Nc2cnc(CN3CCN(CC)CC3)c(C(F)(F)F)c2)Cc2cc(Oc3ccnc4[nH]c(CCOC)cc34)cnc21 [XIV-26] | < 500 nM | –
14 | Cc1cc2c(Oc3ccc4c(c3)[C@H](C)N(C(=O)Nc3cnc5c(c3)CCCN5C3CCN(C)CC3)CC4)ccnc2[nH]1 [X-8] | – | 5000 to 10000 nM
15 | CC[C@@H]1CN(C(=O)Nc2ccc(CN3CCN(CCO)CC3)c(C(F)F)c2)Cc2cc(Oc3ccnc4[nH]c(CO)cc34)ccc21 [XV-7] | < 500 nM | –
16 | CC1CN(C(=O)Nc2cnc(OC3CCN(C)CC3)c(C(F)(F)F)c2)Cc2cc(Oc3ccnc4[nH]ncc34)cnc21 (stereo not drawn) [VII-11] | – | 500 to 5000 nM
17 | CCN1CCN(Cc2ccc(NC(=O)N3CCc4ccc(Oc5ccnc6[nH]c(CCOC)cc56)cc4[C@@H]3C)cc2C(F)(F)F)CC1 [V-25] | – | < 500 nM
18 | CC[C@H]1CN(C(=O)Nc2ccc(CN3CCN(CCO)CC3)c(C(F)F)c2)Cc2cc(Oc3ccnc4[nH]c(C#N)cc34)ccc21 [XV-21] | < 500 nM | –
19 | CC[C@H]1CN(C(=O)Nc2ccc(CN3CCN(C)CC3)c(C(F)(F)F)c2)Cc2cc(Oc3ccnn4cc(C(=O)NC)nc34)cnc21 [XIV-120] | 500 to 5000 nM | –
20 | CN1CCN(Cc2ncc(NC(=O)N3CCc4cc(F)c(Nc5c(F)cnc6[nH]c(-c7cnn(C)c7)cc56)cc4C3)cc2C(F)(F)F)CC1 [XVII-4] | < 500 nM | –
21 | CC[C@H]1CN(C(=O)Nc2ccc(CN3CCNCC3)c(C(F)(F)F)c2)Cc2cc(Oc3ncnc4[nH]c(C(=O)N(C)C)cc34)cnc21 [XIV-126] | < 500 nM | –
22 | Cc1cc2c(Oc3ccc4c(c3)[C@H](C)N(C(=O)Nc3cnc(OCCn5ccnc5)c(C(F)(F)F)c3)CC4)ccnc2[nH]1 [VI-17] | – | 500 to 5000 nM
23 | C[C@H]1c2cc(Oc3ccnc4[nH]ccc34)ccc2CCN1C(=O)Nc1ccc(CN2CCN(CCO)CC2)c(C(F)(F)F)c1 [V-19] | – | < 500 nM
24 | CCN1CCN(Cc2ccc(NC(=O)N3Cc4cc(Oc5ccnc6[nH]c(C)cc56)c(F)cc4C(C)C3)cc2C(F)(F)F)CC1 (stereo not drawn) [IV-29] | – | < 500 nM
25 | CN1CCN(Cc2ccc(NC(=O)N3Cc4cc(Oc5ccnc6[nH]ccc56)ccc4C(C(F)(F)F)C3)cc2C(F)(F)F)CC1 (stereo not drawn) [XVIII-14] | < 500 nM | –
26 | C[C@@H]1Cc2ccc(Oc3ccnc4[nH]c(C(=O)N(C)C)cc34)cc2CN1C(=O)Nc1ccc(CN2CCN(C)CC2)c(C(F)(F)F)c1 [XVI-1] | < 500 nM | –
27 | CCN1CCN(Cc2ccc(NC(=O)N3Cc4cc(Oc5ccnc6[nH]ccc56)ccc4C(C)C3)cc2C(F)(F)F)CC1 (single isomer, unassigned) [IV-2] | – | < 500 nM

Row | SMILES | IC50 (Table 20) | IC50 (Table 19)
28 | C[C@H]1CN(C(=O)Nc2ccc(CN3CCN(C)CC3)c(C(F)(F)F)c2)Cc2cc(Oc3c(F)cnc4[nH]c(C5(O)COC5)cc34)cnc21 [XIV-88] | < 500 nM | –
29 | CCN1CCN(Cc2ccc(NC(=O)N3CC(C)c4ccc(Oc5ccnc6[nH]ccc56)cc4[C@@H]3C)cc2C(F)(F)F)CC1 (stereo partly drawn) [X-4] | – | > 10000 nM
30 | CN1CCN(Cc2ncc(NC(=O)N3CCc4ccc(Oc5c(F)cnc6[nH]c(-c7cn[nH]c7)cc56)cc4C3)cc2C(F)(F)F)CC1 [XII-8] | < 500 nM | –
31 | Cc1cc2c(Oc3cnc4c(c3)CN(C(=O)Nc3ccc(CN5C[C@H]6C[C@@H]5CN6C)c(C(F)(F)F)c3)C[C@H]4C)ccnc2[nH]1 [XIV-99] | 500 to 5000 nM | –
32 | C[C@H]1CN(C(=O)Nc2ccc(CN3CCN(C)CC3)c(C(F)(F)F)c2)Cc2cc(Oc3c(F)cnc4[nH]c(-c5cnn(C)c5)cc34)ccc21 [XII-12] | < 500 nM | –
33 | CC[C@H]1CN(C(=O)Nc2ccc(CN3CCNCC3)c(C(F)(F)F)c2)Cc2cc(Oc3ccnn4cc(C(=O)NC)nc34)cnc21 [XIV-129] | 500 to 5000 nM | –
34 | CC[C@H]1CN(C(=O)Nc2ccc(CN3CCN(C)CC3)c(C(F)(F)F)c2)Cc2cc(Oc3ncnc4[nH]c(C(=O)NC)cc34)cnc21 [XIV-121] | < 500 nM | –
35 | CCN1CCN(Cc2ccc(NC(=O)N3Cc4cc(Oc5ccnc6[nH]nnc56)cnc4C(C)C3)cc2C(F)(F)F)CC1 (single isomer, unassigned) [XIV-17] | > 10000 nM | –
36 | CCN1CCN(Cc2ccc(NC(=O)N3CCc4ncc(Oc5ccnc6[nH]ncc56)cc4C3C)cc2C(F)(F)F)CC1 (stereo not drawn) [VIII-3] | – | 500 to 5000 nM
37 | Cc1cc2c(Oc3cnc4c(c3)CN(C(=O)Nc3ccc(CN5CC6CCC(C5)N6)c(C(F)(F)F)c3)C[C@H]4C)ccnc2[nH]1 [XIV-101] | 500 to 5000 nM | –
38 | CCC1CN(C(=O)Nc2ccc(CN3CCN(CC)CC3)c(C(F)(F)F)c2)Cc2cc(Oc3ncnc4[nH]c(C)cc34)cnc21 (stereo not drawn) [XIV-3] | < 500 nM | –
39 | CC[C@@H]1CN(C(=O)Nc2ccc(CN3CCNCC3)c(C(F)(F)F)c2)Cc2cc(Oc3ccnn4cc(C(=O)N(C)C)nc34)cnc21 [XIV-116] | 5000 to 10000 nM | –
40 | CCN1CCN(Cc2ccc(NC(=O)N3CCc4ccc(Oc5c(F)cnc6[nH]c(C7(O)COC7)cc56)cc4[C@@H]3C)cc2C(F)(F)F)CC1 [XIII-16] | < 500 nM | –
41 | CCN1CCN(Cc2ccc(NC(=O)N3CCc4ncc(Oc5ccnc6[nH]ncc56)cc4C3C)cc2C(F)(F)F)CC1 (single isomer, unassigned) [VIII-5] | – | 500 to 5000 nM
42 | C=C(C)c1cc2c(Oc3cnc4c(c3)CN(C(=O)Nc3ccc(CN5CCN(C)CC5)c(C(F)(F)F)c3)C[C@@H]4CC)ccnc2[nH]1 [XIV-152] | < 500 nM | –
43 | CCN1CCN(Cc2ccc(NC(=O)N3CCc4ncc(Oc5ccnc6[nH]ccc56)cc4C3)cc2C(F)(F)F)CC1 [VII-1] | – | < 500 nM
44 | CCN1CCN(Cc2ccc(NC(=O)N3Cc4cc(Oc5ccnc6[nH]ccc56)cnc4[C@@H](C)C3)cc2C(F)(F)F)CC1 [XI-10] | < 500 nM | –
45 | C[C@H]1CN(C(=O)Nc2ccc(CN3CCN(CCO)CC3)c(C(F)(F)F)c2)Cc2cc(Oc3ccnc4[nH]c(C#N)cc34)ccc21 [XV-36] | < 500 nM | –
46 | CN1CCN(Cc2ncc(NC(=O)N3CCc4ccc(Nc5c(F)cnc6[nH]c(-c7cnn(C)c7)cc56)cc4C3)cc2C(F)(F)F)CC1 [XVII-2] | < 500 nM | –
47 | CCN1CCN(Cc2ccc(NC(=O)N3CCc4ccc(Oc5cc(NC)ncn5)cc4C3)cc2C(F)(F)F)CC1 [II-1] | – | < 500 nM
48 | CCN1CCN(Cc2ccc(NC(=O)N3CCc4ccc(Oc5ncnc6[nH]ncc56)cc4C3)cc2C(F)(F)F)CC1 [II-5] | – | < 500 nM
49 | CC[C@H]1CN(C(=O)Nc2ccc(CN3CCN(CCO)CC3)c(C(F)F)c2)Cc2cc(Oc3ncnc4[nH]c(C5CC5)cc34)ccc21 [XV-2] | < 500 nM | –
50 | CCN1CCN(Cc2ccc(NC(=O)N3CCc4ncc(Oc5ncnn6cccc56)cc4C3)cc2C(F)(F)F)CC1 [compound 8, N-[4-[(4-Ethylpiperazin-1-yl)methyl]-3-(trifluoromethyl)phenyl]-3-[pyrrolo[2,1-f][1,2,4]triazin-4-yloxy]-5,6,7,8-tetrahydro-1,6-naphthyridine-6-carboxamide] | – | < 500 nM
51 | C[C@@H]1Cc2ccc(Oc3ccnc4[nH]c(C(=O)N(C)C)cc34)cc2CN1C(=O)Nc1cnc(O[C@@H]2CCN(C)C[C@@H]2O)c(C(F)(F)F)c1 [XVI-6] | < 500 nM | –
52 | CN1CCN(Cc2ccc(NC(=O)N3CCc4ccc(Oc5c(F)cnc6[nH]c(C(=O)N(C)C)cc56)cc4C3)cc2C(F)(F)F)CC1 [XVIII-4] | < 500 nM | –
53 | CCN1CCN(Cc2ccc(NC(=O)N3CCc4cc(F)c(Oc5ccnn6cccc56)cc4C3C)cc2C(F)(F)F)CC1 (stereo not drawn) [IV-30] | – | 500 to 5000 nM
54 | CN1CCN(Cc2ccc(NC(=O)N3CCc4ccc(Nc5c(F)cnc6[nH]c(-c7cnn(C)c7)cc56)cc4C3)cc2C(F)(F)F)CC1 [compound 22, 7-[[5-Fluoro-2-(1-methylpyrazol-4-yl)-1H-pyrrolo[2,3-b]pyridin-4-yl]amino]-N-[4-[(4-methylpiperazin-1-yl)methyl]-3-(trifluoromethyl)phenyl]-3,4-dihydro-1H-isoquinoline-2-carboxamide] | < 500 nM | –
